Experimental data as given in patent US20260102472A1, “SEMAGLUTIDE IN MEDICAL THERAPY” (Novo Nordisk A/S, priority 2023, published 2026).

System: human subjects with established cardiovascular (CV) disease and obesity or overweight
Experiment: Randomised, double-blind, placebo-controlled clinical trial of semaglutide in established cardiovascular disease and obesity or overweight (Example 3)
Format: in vivo
Details: for Heart failure leading to hospitalisation, Treatment Hazard ratio vs. placebo / Heart failure leading to hospitalisation, Events / Heart failure leading to hospitalisation, Events (%): baseline to end-of-trial (mean duration 39.8 months), 2.4 mg once weekly
Method: A randomised, double-blind, international multicentre, placebo-controlled clinical trial with semaglutide was carried out with 17604 human subjects with established cardiovascular (CV) disease and obesity or overweight.
Key inclusion criteria were at least 45 years of age, BMI of at least 27 kg/m^2 and established (CV) disease. Key exclusion criteria were type 1 diabetes or type 2 diabetes.
Subjects were randomised in a 1:1 manner to receive either 2.4 mg semaglutide or placebo once weekly as add-on to standard of care. After randomization, a 16-week dose escalation period followed and then an event driven maintenance period with a mean (+SD) duration of exposure to semaglutide or placebo in the overall trial population of 34.2 (±13.7) months (33.3 (±14.4) months for semaglutide and 35.1 (±13.0) months for placebo). Subjects administered semaglutide initiated treatment with a once-weekly dose of 0.25 mg and followed a fixed dose escalation regimen, with dose increase every 4 weeks (through dosages of 0.5, 1.0, 1.7 mg once weekly), until the 2.4 mg once weekly maintenance dose was reached after 16 weeks.
Results from the clinical trial are presented in Tables 19-20 based on 8803 and 8801 subjects randomised to semaglutide and placebo, respectively. Results from the chronic heart failure (HF) population of the clinical trial are presented in Tables 21-22 based on 2155 and 2131 chronic HF subjects randomised to semaglutide and placebo, respectively. Heart failure leading to hospitalisation was defined as hospital admission for at least 24 hours with a primary diagnosis of heart failure with documented new or worsening symptoms due to heart failure; and objective evidence of new or worsening heart failure (physical findings and/or laboratory evidence or invasive diagnostic evidence); and increased/initiated appropriate treatment. Estimated hazard ratios relative to placebo and two-sided p-values were obtained from a Cox proportional hazards model with randomised treatment as a fixed factor. CI: Confidence interval.

[1] = subjects with chronic HF only (2155)

For “N-epsilon26-[2-(2-{2-[2-(2-{2-[(S)-4-Carboxy-4-(17-carboxyheptadecanoyl-amino) butyrylamino]ethoxy}ethoxy) acetylamino]ethoxy}ethoxy) acetyl] [Aib8,Arg34] GLP-1-(7-37) [Semaglutide]”, the “Heart failure leading to hospitalisation, Treatment Hazard ratio vs. placebo” value was 0.79, the “Heart failure leading to hospitalisation, Events” value (8803 subjects) was 97 and the “Heart failure leading to hospitalisation, Events (%)” value (8803 subjects) was 1.1%. For the same substance, the “Heart failure leading to hospitalisation, Treatment Hazard ratio vs. placebo” value (listed as semaglutide) was “achieved a reduction”, the “Reduction for CV death compared with placebo” value (patients with chronic heart failure, statistically significant) was 24% and the “Heart failure leading to hospitalisation, Events” value [1] was 61. The “Heart failure leading to hospitalisation, Events (%)” value [1] was 2.8%, the “Heart failure leading to hospitalisation, Treatment Hazard ratio vs. placebo” value (subjects with chronic HF only) was 0.86 and the “Heart failure leading to hospitalisation, Treatment Hazard ratio vs. placebo” value (subjects with chronic HF only, listed as semaglutide) was “achieved a reduction”.
